Data from patent publication US9399666B2, “Inhibiting interaction between the HIF-1ALPHA and p300/CBP with hydrogen bond surrogate-based helices” (New York University, priority 2008, dated 2016).
Read-outs that look alike come from different tables or passages of the source. Peptide text beside a SMILES is read from it.

Assays:
p300 = p300 (Homo sapiens, UniProt Q09472); test: Affinity for p300 by isothermal titration calorimetry; assay type: binding; conditions: for Kd: isothermal titration calorimetry, p300, read-out: Kd (ITC); for Affinity for p300 (in words): ITC
Excerpt: Helix αA of HIF-1α C-TAD, shown in FIG. 1A and FIG. 1C, is critical for the interaction between the CH1 domain and HIF-1α, because mutation of its residues or hydroxylation of Asn803 is known to disrupt this complex and inhibit HIF-1α mediated transcription (Freedman et al., “Structural Basis for Recruitment of CBP/p300 by Hypoxia-inducible Factor-1α,” Proc. Nat'l Acad. Sci. USA 99:5367-72 (2002); Dames et al., “Structural Basis for Hif-1α/CBP Recognition in the Cellular Hypoxic Response,” Proc. Nat'1 Acad. Sci. USA 99:5271-6 (2002). Development of HBS helices as potential inhibitors of VEGF transcription was begun by mimicking the aA helix region of HIF-1. This helix consists of eight residues, […] (SEQ ID NO: 111), and features three residues, Asp-Cys-Glu, critical for binding with p300/CBP. Several linear peptides and their HBS α-helix analogs were designed to gauge the potential of these molecules to inhibit VEGF transcription in cell culture. Each unconstrained peptide and HBS helix was synthesized using the procedures described in (Dimartino et al., “Solid-phase Synthesis of Hydrogen-bond Surrogate-derived α-Helices,” Org. Lett. 7:2389-92 (2005); Chapman & Arora, “Optimized Synthesis of Hydrogen-bond Surrogate Helices: Surprising Effects of Microwave Heating on the Activity of Grubbs Catalysts,” Org. Lett. 8:5825-8 (2006)). The percent helicity of each peptide was determined using circular dichroism spectroscopy in 10 mM phosphate buffered saline as described in (Wang et al., “Evaluation of Biologically Relevant Short α-Helices Stabilized by a Main-chain Hydrogen-bond Surrogate,” J. Am. Chem. Soc. 128:9248-56 (2006)). The affinity of each peptide for p300 was measured by isothermal titration calorimetry analysis (Wiseman et al., “Rapid Measurement of Binding Constants and Heats of Binding Using a New Titration calorimeter,” Anal. Biochem. 179:131-7 (1989); Freire et al., “Isothermal Titration calorimetry,” Anal. Chem. 62:A950-A959 (1990); Chervenak & Toone, “Calorimetric Analysis of the Binding of Lectins with Overlapping Carhohydrate-binding Ligand Specificities,” Biochemistry 34:5685-95 (1995); Aki et al., “Competitive Binding of Drugs to the Multiple Binding Sites on Human Serum Albumin. A calorimetric Study,” J Thermal Anal. calorim. 57:36170 (1999); Graziano et al., “Linkage of Proton Binding to the Thermal Unfolding of Sso7d from the Hyperthermophilic Archaebacterium Sulfolobus solfataricus,” Int'l J. Biol. Macromolecules 26:45-53 (1999); Pluschke & Mutz, “Use of Isothermal Titration calorimetry in the Development of Molecularly Defined Vaccines,” J Thermal Anal. calorim. 57:377-88 (1999); Corbell et al., “A Comparison of Biological and calorimetric Analyses of Multivalent Glycodendrimer Ligands for Concanavalin A,” Tetrahedron-Asymmetry 11:95-111 (2000)). The ability of each peptide to downregulate VEGF transcription in cell culture was evaluated by […] quantitative RT-PCR, as described above. The cytotoxicity of each peptide was determined by monitoring cellular growth and population doubling in the presence of individual peptides at 1μM concentration.

circular dichroism = conditions: 10 mM phosphate buffered saline (par. 0128, each peptide; pH given only for 22 and 25, Fig 6B), pH 7.4, ns °C
MDA-MB-231-HRE-Luc cells = assay type: cell-based
Experimental: MDA-MB-231-HRE-Luc cells were maintained in high glucose Dulbecco's Modified Eagle's Medium (“DMEM”) supplemented with 10% fetal bovine serum and 0.4 g/L Geneticin (G418 sulfate, RPI Corporation). Cells were plated in 24-well dishes (BD Falcon) at a density of […] using 1 mL of a 6.5×10^4 cell/mL suspension. […] Cells were incubated for 6 hours at 37° C. in a humidified atmosphere with 5% CO2. Hypoxia was induced by adding desferoxamine mesylate (DFO, Sigma) to a final concentration of 300 μM, and cells were incubated for an additional 18 hours. Whole cell lysates were isolated by washing the cells twice with ice cold PBS and then adding 150 μL of Cell Culture Lysis Reagent (“CCLR,” Promega). Lysate was collected, centrifuged at 13,000 rpm at 4° C., aliquoted, and stored at −80° C. Luciferase assays were conducted according to the manufacturer's instructions (Promega) using a Turner TD-20e Luminometer. Relative light intensity measurements were normalized by performing a Bradford assay to determine the protein content of the lysate used in the luciferase assay. Briefly, 50 μL of cell lysate/luciferase assay reagent mix was added to 200 μL of Bradford reagent and 750 μL of Millipore water in a 1.5 mL cuvette. Protein standards were created in the range of 1 μg/mL to 10 μg/mL with the appropriate amount of a 1 mg/mL BSA solution. Absorbance was measured at 595 nm using a DU-800 spectrophotometer. The experiments were carried out in triplicate with the error bars calculated as standard error of the mean.

[1] = Percent helicity by circular dichroism spectroscopy; assay type: physicochemical; conditions: 10 mM phosphate buffered saline
Excerpt: Helix αA of HIF-1α C-TAD, shown in FIG. 1A and FIG. 1C, is critical for the interaction between the CH1 domain and HIF-1α, because mutation of its residues or hydroxylation of Asn803 is known to disrupt this complex and inhibit HIF-1α mediated transcription (Freedman et al., “Structural Basis for Recruitment of CBP/p300 by Hypoxia-inducible Factor-1α,” Proc. Nat'l Acad. Sci. USA 99:5367-72 (2002); Dames et al., “Structural Basis for Hif-1α/CBP Recognition in the Cellular Hypoxic Response,” Proc. Nat'1 Acad. Sci. USA 99:5271-6 (2002). Development of HBS helices as potential inhibitors of VEGF transcription was begun by mimicking the aA helix region of HIF-1. This helix consists of eight residues, […] (SEQ ID NO: 111), and features three residues, Asp-Cys-Glu, critical for binding with p300/CBP. Several linear peptides and their HBS α-helix analogs were designed to gauge the potential of these molecules to inhibit VEGF transcription in cell culture. Each unconstrained peptide and HBS helix was synthesized using the procedures described in (Dimartino et al., “Solid-phase Synthesis of Hydrogen-bond Surrogate-derived α-Helices,” Org. Lett. 7:2389-92 (2005); Chapman & Arora, “Optimized Synthesis of Hydrogen-bond Surrogate Helices: Surprising Effects of Microwave Heating on the Activity of Grubbs Catalysts,” Org. Lett. 8:5825-8 (2006)). The percent helicity of each peptide was determined using circular dichroism spectroscopy in 10 mM phosphate buffered saline as described in (Wang et al., “Evaluation of Biologically Relevant Short α-Helices Stabilized by a Main-chain Hydrogen-bond Surrogate,” J. Am. Chem. Soc. 128:9248-56 (2006)). The affinity of each peptide for p300 was measured by isothermal titration calorimetry analysis (Wiseman et al., “Rapid Measurement of Binding Constants and Heats of Binding Using a New Titration calorimeter,” Anal. Biochem. 179:131-7 (1989); Freire et al., “Isothermal Titration calorimetry,” Anal. Chem. 62:A950-A959 (1990); Chervenak & Toone, “Calorimetric Analysis of the Binding of Lectins with Overlapping Carhohydrate-binding Ligand Specificities,” Biochemistry 34:5685-95 (1995); Aki et al., “Competitive Binding of Drugs to the Multiple Binding Sites on Human Serum Albumin. A calorimetric Study,” J Thermal Anal. calorim. […] The ability of each peptide to downregulate VEGF transcription in cell culture was evaluated by […] quantitative RT-PCR, as described above. The cytotoxicity of each peptide was determined by monitoring cellular growth and population doubling in the presence of individual peptides at 1μM concentration.

| SMILES | Kd (p300) [nM] | helicity (circular dichroism) [%] | % Transcription inhibition in cell culture (Luc) (MDA-MB-231-HRE-Luc cells; 1000 nM) | % Helicity [1] [%] | Affinity for p300 (in words) (p300) | Inhibition of VEGF transcription in cell culture (in words) (MDA-MB-231-HRE-Luc cells) | % Transcription inhibition in cell culture (Luc) (MDA-MB-231-HRE-Luc cells; luciferase assay, 1 μM peptide) [%] |
| --- | --- | --- | --- | --- | --- | --- | --- |
| CC(C)[C@H](NC(=O)[C@H](CCC(=O)O)NC(=O)[C@H](CS)NC(=O)[C@H](CC(=O)O)NC(=O)[C@H](Cc1ccc(O)cc1)N1CC=CCCC(=O)N[C@@H]([C@@H](C)O)C(=O)N[C@@H](C)C1=O)C(=O)N[C@@H](CC(N)=O)C(=O)N[C@@H](C)C(N)=O [Compound 20] | 540 | 44 | 0 ± 5 (Luc) % | – | – | – | – |
| CC(C)[C@H](NC(=O)[C@H](CCC(=O)O)NC(=O)[C@@H](NC(=O)[C@H](CC(=O)O)NC(=O)[C@H](Cc1ccc(O)cc1)N1CC=CCCC(=O)N[C@@H]([C@@H](C)O)C(=O)N[C@@H](C)C1=O)C(C)C)C(=O)N[C@@H](CC(N)=O)C(=O)N[C@@H](C)C(N)=O [Compound 21] | 690 ± 60 | 16 | – | – | – | – | – |
| C[C@H](NC(=O)[C@H](CC(N)=O)NC(=O)[C@H](Cc1ccc(O)cc1)NC(=O)[C@H](CCC(=O)O)NC(=O)[C@H](CS)NC(=O)[C@H](CC(=O)O)NC(=O)[C@H](C)N1CC=CCCC(=O)N[C@@H]([C@@H](C)O)C(=O)N[C@@H](C)C1=O)C(=O)N[C@@H](CCCNC(=N)N)C(N)=O [Compound 22] | 420 ± 35 | 53 | – | – | – | – | – |
| CC(=O)N[C@H](C(=O)N[C@@H](CO)C(=O)N[C@@H](Cc1ccc(O)cc1)C(=O)N[C@@H](CC(=O)O)C(=O)N[C@@H](CS)C(=O)N[C@@H](CCC(=O)O)C(=O)N[C@H](C(=O)N[C@@H](CC(N)=O)C(=O)N[C@@H](C)C(N)=O)C(C)C)[C@@H](C)O [Compound 23] (Ac-TSYDCEVNA-NH2) | – | 14 | – | 14 | bound p300 with significant affinities | failed to inhibit VEGF transcription in cell culture | 10 ± 5 |
| CC(=O)N[C@H](C(=O)N[C@@H](C)C(=O)N[C@@H](Cc1ccc(O)cc1)C(=O)N[C@@H](CC(=O)O)C(=O)N[C@@H](CS)C(=O)N[C@@H](CCC(=O)O)C(=O)N[C@H](C(=O)N[C@@H](CC(N)=O)C(=O)N[C@@H](C)C(N)=O)C(C)C)[C@@H](C)O [Compound 24] (Ac-TAYDCEVNA-NH2) | – | 15 | – | 15 | bound p300 with significant affinities | failed to inhibit VEGF transcription in cell culture | 15 ± 5 |
